As usually defined, the IC50 is the midpoint of a concentration-inhibition curve. The low end stands for higher potency, the high end for lower potency.

Consider 17 compounds from patent US20250136578A1 (Kolm Therapeutics Inc., priority 2023, published 2025).

In assay [1] the target is AR / CBP ternary complex (Homo sapiens, UniProt P10275+Q92793). Description: Ternary complex formation assay (sandwich ELISA, AR capture, CBP antibody detection) in VCaP cell lysates. Type of assay: cell-based. The following applies: treated 1.5 hours, rabbit CBP or p300 antibody detection, average, read-out: Average Ternary Complex. In outline: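 Sandwich ELISA: plates were coated with anti-AR antibody (AR441) and given lysates of VCaP cells treated 1.5 h with bifunctional compound in charcoal-stripped serum. Co-captured CBP or p300 was probed with rabbit mAbs and HRP secondary. Chemifluorescent signal (ex 570/em 585) was read at 0, 5 and 15 min.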

The subject of assay [2] is VCaP cells. Briefly: VCaP growth inhibition assay (CTG). Type of assay: cell-based. The following applies: Homo sapiens, 216 h, 30 pM R1881, 9 days. The gist of the method: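 Growth was measured by CTG luminescence after a 9-day exposure of VCaP cells to compound (final 10 fM–100 nM, fivefold steps) in the presence of 30 pM final R1881, in phenol red-free DMEM/5% CSS. IC50 values were derived by nonlinear 4-parameter regression of RLU against concentration.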

AR / CBP ternary complex, sequence (P10275 whole entry): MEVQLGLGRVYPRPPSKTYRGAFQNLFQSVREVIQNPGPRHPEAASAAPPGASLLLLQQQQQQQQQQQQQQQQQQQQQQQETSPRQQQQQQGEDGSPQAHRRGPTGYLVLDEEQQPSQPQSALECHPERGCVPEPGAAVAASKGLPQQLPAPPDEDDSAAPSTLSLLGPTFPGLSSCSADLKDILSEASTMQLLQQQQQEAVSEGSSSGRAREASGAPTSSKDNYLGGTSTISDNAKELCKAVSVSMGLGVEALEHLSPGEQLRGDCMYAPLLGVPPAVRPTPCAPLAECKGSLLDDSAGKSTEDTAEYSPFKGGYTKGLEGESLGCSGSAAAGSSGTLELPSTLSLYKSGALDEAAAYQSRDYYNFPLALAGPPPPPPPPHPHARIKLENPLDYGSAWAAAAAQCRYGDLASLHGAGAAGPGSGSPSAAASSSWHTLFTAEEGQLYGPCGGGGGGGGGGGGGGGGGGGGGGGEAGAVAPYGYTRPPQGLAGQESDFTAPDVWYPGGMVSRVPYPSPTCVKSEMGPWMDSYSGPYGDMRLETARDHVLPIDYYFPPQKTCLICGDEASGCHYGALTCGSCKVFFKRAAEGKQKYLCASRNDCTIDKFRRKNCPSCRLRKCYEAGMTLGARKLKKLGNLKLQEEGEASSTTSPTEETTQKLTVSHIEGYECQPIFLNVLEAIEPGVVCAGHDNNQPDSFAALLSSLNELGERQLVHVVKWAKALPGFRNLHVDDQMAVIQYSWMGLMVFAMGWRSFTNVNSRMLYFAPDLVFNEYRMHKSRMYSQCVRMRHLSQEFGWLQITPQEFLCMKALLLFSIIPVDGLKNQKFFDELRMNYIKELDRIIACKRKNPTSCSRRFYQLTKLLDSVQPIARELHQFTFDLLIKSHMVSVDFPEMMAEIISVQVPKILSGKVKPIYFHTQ
AR / CBP ternary complex, sequence (Q92793 2-2442): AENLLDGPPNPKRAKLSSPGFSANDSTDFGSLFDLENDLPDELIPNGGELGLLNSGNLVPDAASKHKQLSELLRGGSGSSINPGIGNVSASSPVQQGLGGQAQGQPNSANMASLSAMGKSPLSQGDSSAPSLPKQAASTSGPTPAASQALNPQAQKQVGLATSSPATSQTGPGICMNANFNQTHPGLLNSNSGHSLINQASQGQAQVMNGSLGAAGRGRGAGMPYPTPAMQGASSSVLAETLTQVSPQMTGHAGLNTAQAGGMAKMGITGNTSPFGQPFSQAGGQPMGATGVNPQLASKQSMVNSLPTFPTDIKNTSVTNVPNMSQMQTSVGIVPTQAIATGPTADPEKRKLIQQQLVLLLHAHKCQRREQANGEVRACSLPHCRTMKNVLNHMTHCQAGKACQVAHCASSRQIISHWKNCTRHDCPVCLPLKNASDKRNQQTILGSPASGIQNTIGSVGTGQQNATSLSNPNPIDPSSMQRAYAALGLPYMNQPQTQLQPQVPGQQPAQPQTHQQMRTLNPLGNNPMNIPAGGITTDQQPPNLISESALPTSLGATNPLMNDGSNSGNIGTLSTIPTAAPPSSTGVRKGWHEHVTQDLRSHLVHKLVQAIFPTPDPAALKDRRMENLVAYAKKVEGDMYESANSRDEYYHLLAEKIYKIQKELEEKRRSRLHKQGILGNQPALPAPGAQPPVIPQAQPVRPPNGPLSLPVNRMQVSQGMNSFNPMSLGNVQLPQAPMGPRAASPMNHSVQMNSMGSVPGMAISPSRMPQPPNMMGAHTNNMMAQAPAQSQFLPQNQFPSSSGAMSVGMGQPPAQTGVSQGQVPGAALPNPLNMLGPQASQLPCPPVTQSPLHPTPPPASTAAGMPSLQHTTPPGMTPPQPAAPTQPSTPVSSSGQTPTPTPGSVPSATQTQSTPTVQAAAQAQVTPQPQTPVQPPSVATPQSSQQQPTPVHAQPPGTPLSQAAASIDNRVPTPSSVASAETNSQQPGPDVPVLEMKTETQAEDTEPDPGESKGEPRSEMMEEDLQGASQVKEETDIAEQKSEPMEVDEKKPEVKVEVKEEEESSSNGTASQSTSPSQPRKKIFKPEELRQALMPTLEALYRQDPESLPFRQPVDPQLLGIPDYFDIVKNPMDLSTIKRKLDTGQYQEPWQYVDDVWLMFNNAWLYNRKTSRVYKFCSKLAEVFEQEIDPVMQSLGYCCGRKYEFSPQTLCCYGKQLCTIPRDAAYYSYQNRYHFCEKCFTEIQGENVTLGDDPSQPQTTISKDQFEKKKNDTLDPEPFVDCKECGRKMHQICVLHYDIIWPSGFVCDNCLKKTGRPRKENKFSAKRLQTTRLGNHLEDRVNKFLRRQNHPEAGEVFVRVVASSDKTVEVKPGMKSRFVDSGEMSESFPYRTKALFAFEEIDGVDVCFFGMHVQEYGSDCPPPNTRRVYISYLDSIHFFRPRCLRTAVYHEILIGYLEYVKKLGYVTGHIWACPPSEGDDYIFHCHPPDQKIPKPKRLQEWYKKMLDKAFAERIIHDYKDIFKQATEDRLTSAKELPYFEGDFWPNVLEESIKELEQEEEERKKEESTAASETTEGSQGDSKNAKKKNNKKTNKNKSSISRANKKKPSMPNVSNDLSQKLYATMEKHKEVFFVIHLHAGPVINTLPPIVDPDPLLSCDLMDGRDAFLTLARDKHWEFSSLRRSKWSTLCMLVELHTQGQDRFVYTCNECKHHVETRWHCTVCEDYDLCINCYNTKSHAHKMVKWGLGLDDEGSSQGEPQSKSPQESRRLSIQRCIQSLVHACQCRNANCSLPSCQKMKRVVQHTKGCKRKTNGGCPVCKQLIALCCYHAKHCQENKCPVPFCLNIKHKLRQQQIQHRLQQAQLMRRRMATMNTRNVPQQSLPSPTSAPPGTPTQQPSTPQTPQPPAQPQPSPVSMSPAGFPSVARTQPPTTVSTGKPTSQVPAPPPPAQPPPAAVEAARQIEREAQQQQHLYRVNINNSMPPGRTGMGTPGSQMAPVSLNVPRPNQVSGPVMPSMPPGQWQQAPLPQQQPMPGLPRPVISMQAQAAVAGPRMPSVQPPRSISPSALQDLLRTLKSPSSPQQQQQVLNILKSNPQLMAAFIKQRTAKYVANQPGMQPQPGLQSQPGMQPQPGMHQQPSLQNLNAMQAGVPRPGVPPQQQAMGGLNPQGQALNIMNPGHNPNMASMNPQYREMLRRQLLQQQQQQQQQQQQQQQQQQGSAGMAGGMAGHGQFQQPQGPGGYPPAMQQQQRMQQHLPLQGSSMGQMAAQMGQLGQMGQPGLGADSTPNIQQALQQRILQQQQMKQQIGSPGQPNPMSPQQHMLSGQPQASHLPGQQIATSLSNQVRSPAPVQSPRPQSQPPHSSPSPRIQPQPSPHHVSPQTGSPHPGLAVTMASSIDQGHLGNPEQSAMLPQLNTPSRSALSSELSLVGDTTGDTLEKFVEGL

Consider `CC(=O)N1CCc2c(c(N3CCCc4cc(-c5cnn(C)c5)ncc43)nn2C2CCN(C(=O)C3CCN(c4ccc(C(=O)N[C@H]5CC[C@H](Oc6ccc(C#N)c(Cl)c6)CC5)nn4)CC3)CC2)C1` [Compound 67, 6-[4-[4-[5-acetyl-3-[6-(1-methylpyrazol-4-yl)-3,4-dihydro-2H-1,7-naphthyridin-1-yl]-6,7-dihydro-4H-pyrazolo[4,3-c]pyridin-1-yl]piperidine-1-carbonyl]-1-piperidyl]-N-[4-(3-chloro-4-cyano-phenoxy)cyclohexyl]pyridazine-3-carboxamide], for which the EC50 in assay [1] was below 1 nM. Besides, the IC50 in assay [2] lay in the range of 0.1 to 1 nM.
On the same counts, the results for `CC(=O)N1CCc2c(c(N3CCCc4cc(C#N)ncc43)nn2C2CCN(CC3CCN(c4ccc(C(=O)N[C@H]5CC[C@H](Oc6ccc(C#N)c(Cl)c6)CC5)nn4)CC3)CC2)C1` [Compound 68, 6-[4-[[4-[5-acetyl-3-(6-cyano-3,4-dihydro-2H-1,7-naphthyridin-1-yl)-6,7-dihydro-4H-pyrazolo[4,3-c]pyridin-1-yl]-1-piperidyl]methyl]-1-piperidyl]-N-[4-(3-chloro-4-cyano-phenoxy)cyclohexyl]pyridazine-3-carboxamide] are below 1 nM and at most 0.1 nM.
On the same counts, the results for `CC(=O)N1CCc2c(c(N3CCCc4cc(C#N)ncc43)nn2C2CCN(C(=O)C3CCN(c4ccc(C(=O)N[C@H]5CC[C@H](Oc6ccc(C#N)c(Cl)c6)CC5)nn4)CC3)CC2)C1` [Compound 69, 6-[4-[4-[5-acetyl-3-(6-cyano-3,4-dihydro-2H-1,7-naphthyridin-1-yl)-6,7-dihydro-4H-pyrazolo[4,3-c]pyridin-1-yl]piperidine-1-carbonyl]-1-piperidyl]-N-[4-(3-chloro-4-cyano-phenoxy)cyclohexyl]pyridazine-3-carboxamide] are below 1 nM and at most 0.1 nM.
On the same counts, the results for `CC(=O)N1CCc2c(c(-c3cccc4nc(-c5cnn(CCC6CCN(c7ccc(C(=O)N[C@H]8CC[C@H](Oc9ccc(C#N)c(Cl)c9)CC8)nn7)CC6)c5)ncc34)nn2C2CCOCC2)C1` [Compound 70] are below 1 nM and 0.1 to 1 nM.
Turning to `CC(=O)N1CCc2c(c(N3CCCc4nc(-c5ccc(CCC6CCN(c7ccc(C(=O)N[C@H]8CC[C@H](Oc9ccc(C#N)c(Cl)c9)CC8)nn7)CC6)nc5)ncc43)nn2C2CCOCC2)C1` [Compound 72, 6-[4-[2-[5-[5-(5-acetyl-1-tetrahydropyran-4-yl-6,7-dihydro-4H-pyrazolo[4,3-c]pyridin-3-yl)-7,8-dihydro-6H-pyrido[3,2-d]pyrimidin-2-yl]-2-pyridyl]ethyl]-1-piperidyl]-N-[4-(3-chloro-4-cyano-phenoxy)cyclohexyl]pyridazine-3-carboxamide], the EC50 in assay [1] was below 1 nM. Also, in assay [2], the half-maximal inhibitory concentration (IC50) lay within 0.1 to 1 nM.
Turning to `CC(=O)N1CCc2c(c(-c3cccc4nc(-c5ccc(CCC6CCN(c7ccc(C(=O)N[C@H]8CC[C@H](Oc9ccc(C#N)c(Cl)c9)CC8)nn7)CC6)nc5)ncc34)nn2C2CCOCC2)C1` [Compound 73, 6-[4-[2-[5-[5-(5-acetyl-1-tetrahydropyran-4-yl-6,7-dihydro-4H-pyrazolo[4,3-c]pyridin-3-yl)quinazolin-2-yl]-2-pyridyl]ethyl]-1-piperidyl]-N-[4-(3-chloro-4-cyano-phenoxy)cyclohexyl]pyridazine-3-carboxamide], in assay [1], the EC50 is below 1 nM. Moreover, the IC50 in assay [2] was at most 0.1 nM.
Take `CC(=O)N1CCc2c(c(N3CCCc4cc(C#N)ccc43)nn2[C@H]2C[C@H](CC3CCN(c4ccc(C(=O)N[C@H]5CC[C@H](Oc6ccc(C#N)c(Cl)c6)CC5)nn4)CC3)C2)C1` [Compound 77, 6-[4-[[3-[5-acetyl-3-(6-cyano-3,4-dihydro-2H-quinolin-1-yl)-6,7-dihydro-4H-pyrazolo[4,3-c]pyridin-1-yl]cyclobutyl]methyl]-1-piperidyl]-N-[4-(3-chloro-4-cyano-phenoxy)cyclohexyl]pyridazine-3-carboxamide]: the EC50 in assay [1] is 1 to 10 nM. Also, the IC50 in assay [2] is 0.1 to 1 nM.
Take `CC(=O)N1CCc2c(c(-c3cccc4cc(-c5cnn(CCC6CCN(c7ccc(C(=O)N[C@H]8CC[C@H](Oc9ccc(C#N)c(Cl)c9)CC8)nn7)CC6)c5)ncc34)nn2C2CC2)C1` [Compound 82]: the EC50 in assay [1] was below 1 nM. In addition, the IC50 in assay [2] lay within 0.1 to 1 nM.
On the same counts, the results for `CC(=O)N1CCc2c(c(-c3cccc4cc(-c5cnn(CCC6CCN(c7ccc(C(=O)N[C@H]8CC[C@H](Oc9ccc(C#N)c(Cl)c9)CC8)nn7)CC6)c5)ncc34)nn2C2CCC2)C1` [Compound 83, 6-[4-[2-[4-[8-(5-acetyl-1-cyclobutyl-6,7-dihydro-4H-pyrazolo[4,3-c]pyridin-3-yl)-3-isoquinolyl]pyrazol-1-yl]ethyl]-1-piperidyl]-N-[4-(3-chloro-4-cyanophenoxy)cyclohexyl]pyridazine-3-carboxamide] are below 1 nM and 0.1 to 1 nM.
On the same counts, the results for `CC(=O)N1CCc2c(c(-c3cccc4cc(-c5cnn(CCC6CCN(c7ccc(C(=O)N[C@H]8CC[C@H](Oc9ccc(C#N)c(Cl)c9)CC8)nn7)CC6)c5)ncc34)nn2C2COC2)C1` [Compound 84, 6-[4-[2-[4-[8-[5-acetyl-1-(oxetan-3-yl)-6,7-dihydro-4H-pyrazolo[4,3-c]pyridin-3-yl]-3-isoquinolyl]pyrazol-1-yl]ethyl]-1-piperidyl]-N-[4-(3-chloro-4-cyano-phenoxy)cyclohexyl]pyridazine-3-carboxamide] are below 1 nM and 0.1 to 1 nM.
On to `CC(=O)N1CCc2c(c(-c3cccc4cc(-c5cnn(CCC6CCN(c7ccc(C(=O)N[C@H]8CC[C@H](Oc9ccc(C#N)c(Cl)c9)CC8)nn7)CC6)c5)ncc34)nn2[C@H]2CCOC2)C1` [Compound 85, 6-[4-[2-[4-[8-[5-acetyl-1-[(3S)-tetrahydrofuran-3-yl]-6,7-dihydro-4H-pyrazolo[4,3-c]pyridin-3-yl]-3-isoquinolyl]pyrazol-1-yl]ethyl]-1-piperidyl]-N-[4-(3-chloro-4-cyano-phenoxy)cyclohexyl] pyridazine-3-carboxamide], for which the EC50 in assay [1] is below 1 nM. In assay [2], this compound came in with an IC50 of at most 0.1 nM.
For the compound `C[C@@H]1CC(=O)Nc2cc(C3CCN(CC4CCN(c5ccc(C(=O)N[C@H]6CC[C@H](Oc7ccc(C#N)c(Cl)c7)CC6)nn5)CC4)CC3)cc(-c3ccc4c(c3)c(-c3cnn(C)c3)nn4C)c2N1` [Compound 87, N-[4-(3-chloro-4-cyano-phenoxy)cyclohexyl]-6-[4-[[4-[(4R)-4-methyl-6-[1-methyl-3-(1-methylpyrazol-4-yl)indazol-5-yl]-2-oxo-1,3,4,5-tetrahydro-1,5-benzodiazepin-8-yl]-1-piperidyl]methyl]-1-piperidyl]pyridazine-3-carboxamide], in assay [1], the EC50 was below 1 nM. Moreover, in assay [2], the IC50 is at most 0.1 nM.
On the same counts, the results for `C[C@@H]1CC(=O)Nc2cc(C3CCN(CC4CCN(c5ccc(C(=O)N[C@H]6CC[C@H](Oc7ccc(C#N)c(Cl)c7)CC6)nn5)CC4)CC3)cc(-c3ccc4c(c3)c(C3CC3)nn4C)c2N1` [Compound 88, N-[4-(3-chloro-4-cyano-phenoxy)cyclohexyl]-6-[4-[[4-[(4R)-6-(3-cyclopropyl-1-methyl-indazol-5-yl)-4-methyl-2-oxo-1,3,4,5-tetrahydro-1,5-benzodiazepin-8-yl]-1-piperidyl]methyl]-1-piperidyl]pyridazine-3-carboxamide] are 1 to 10 nM and 0.1 to 1 nM.
`C[C@@H]1CC(=O)Nc2cc(C3CCN(CC4CCN(c5ccc(C(=O)N[C@H]6CC[C@H](Oc7ccc(C#N)c(Cl)c7)CC6)nn5)CC4)CC3)cc(-c3ccc4c(cnn4C)c3)c2N1` [Compound 89]: the EC50 in assay [1] was below 1 nM. Besides, the IC50 in assay [2] was at most 0.1 nM.
For `CC(=O)N1CCc2c(c(N3CCCc4cc(-c5cnn(C)c5)c(C(F)F)cc43)nn2C2CCN(CCC#Cc3ccc(C(=O)N[C@H]4CC[C@H](Oc5ccc(C#N)c(Cl)c5)CC4)nn3)CC2)C1` [Compound 94, 6-[4-[4-[5-acetyl-3-[7-(difluoromethyl)-6-(1-methylpyrazol-4-yl)-3,4-dihydro-2H-quinolin-1-yl]-6,7-dihydro-4H-pyrazolo[4,3-c]pyridin-1-yl]-1-piperidyl]but-1-ynyl]-N-[4-(3-chloro-4-cyano-phenoxy)cyclohexyl]pyridazine-3-carboxamide], in assay [1], the EC50 was 1 to 10 nM. Further, in assay [2], the 50% inhibitory concentration (IC50) fell in the range of 0.1 to 1 nM.
On the same counts, the results for `CC(=O)N1CCc2c(c(N3CCCc4cc(-c5cnn(C)c5)c(C(F)F)cc43)nn2C2CCN(CC3(C)CCN(c4ccc(C(=O)N[C@H]5CC[C@H](Oc6ccc(C#N)c(Cl)c6)CC5)nn4)CC3)CC2)C1` [Compound 100, 6-[4-[[4-[5-acetyl-3-[7-(difluoromethyl)-6-(1-methylpyrazol-4-yl)-3,4-dihydro-2H-quinolin-1-yl]-6,7-dihydro-4H-pyrazolo[4,3-c]pyridin-1-yl]-1-piperidyl]methyl]-4-methyl-1-piperidyl]-N-[4-(3-chloro-4-cyano-phenoxy)cyclohexyl]pyridazine-3-carboxamide] are below 1 nM and 0.1 to 1 nM.
For `CC(=O)N1CCc2c(c(N3CCCc4cc(C#N)ccc43)nn2C2CCN(CC3(C)CCN(c4ccc(C(=O)N[C@H]5CC[C@H](Oc6ccc(C#N)c(Cl)c6)CC5)nn4)CC3)CC2)C1` [Compound 102, 6-[4-[[4-[5-acetyl-3-(6-cyano-3,4-dihydro-2H-quinolin-1-yl)-6,7-dihydro-4H-pyrazolo[4,3-c]pyridin-1-yl]-1-piperidyl]methyl]-4-methyl-1-piperidyl]-N-[4-(3-chloro-4-cyano-phenoxy)cyclohexyl]pyridazine-3-carboxamide], the EC50 in assay [1] is below 1 nM. In addition, the half-inhibitory concentration (IC50) in assay [2] is 0.1 to 1 nM.
